In US12558354B2, “Tumor necrosis factor alpha (TNF-alpha) small molecule inhibitor” (AJOU UNIVERSITY INDUSTRY-ACADEMIC COOPERATION FOUNDATION, priority 2019, dated 2026):
pIC50: −log10 of the molar value. “Also recorded” adds a separate entry of the source.

Experiments:
[1] = target: T1, recombinant human TNF-α (rhTNF-α) (Homo sapiens, UniProt P01375); assay: TNF-α-mediated hIL-8 secretion in HDFs (ELISA); assay type: cell-based; conditions: for inhibition of TNF-induced hIL-8, TIM1 derivatives compared with TIM1: HDFs, 1, 10 and 50 μM, rhTNF-α 1 ng/ml
T1 construct: purchased Miltenyi Biotec
Method: (§1) HDFs were seeded at a density of 10^4/well in a 96-well plate (BD Biosciences) and grown overnight. The cells were treated for 24 hours with a 1-hour-pre-incubated mixture of rhTNF-α and test compounds. IL-8 secretion was assessed by a human IL-8 uncoated ELISA kit (eBioscience, Inc., San Diego, CA, USA), and IL-6 secretion level was assessed by a human IL-6 ELISA MAX™ Deluxe kit (BioLegend, San Diego, CA, USA). The microtiter plates were then analyzed at an appropriate wavelength using a microplate spectrophotometer system (Molecular Devices, Silicon Valley, California).

[2] = test system: human dermal fibroblasts (HDFs); assay: Cell viability (MTT) assay in human dermal fibroblasts; assay type: cell-based; conditions: HDFs, 24 hours
Method: FIG. 8A is a graph showing the effects of TIM1 and a solvent thereof, DMSO, on the viability of human dermal fibroblasts, in which cells (10^4/well) were treated with DMSO at 3 different concentrations (0.5, 1, and 2%) and TIM1 at 8 different concentrations (1, 3.125, 6.25, 12.5, 25, 50, 100, and 200 μM) for 24 hours, and the cell viability was monitored by an MTT assay. FIG. 8B is a graph showing the effect of TIM1 on the viability of a mouse fibrosarcoma cell line [L929 (1.5×10^4/well)] under the same conditions as in FIG. 8A. All experiments were independently performed 4 times, and mean±SEM of the independent experiments was calculated using a two-tailed paired Student's t-test (*P<0.05).
In order to measure cell viability, a colorimetric […] (MTT) assay (Sigma-Aldrich Co.) was performed. HDFs were seeded at a density of 10^4/well in 96-well plates (BD Biosciences, San Jose, CA, USA), grown overnight, and then treated with a test compound at various concentrations for 24 hours. The next day, the medium was replaced with a medium (100 μl/well) containing a 10% MTT solution, followed by incubated at 37° C. for 3 hours. This solution was replaced with DMSO (100 μl/well), and the plates were incubated at room temperature for 30 minutes. Thereafter, the plates were read at a wavelength of 540 nm using a microplate spectrophotometer system (Molecular Devices, Silicon Valley, California).

[3] = target: T2, recombinant mouse TNF-α (rmTNF-α) (Mus musculus, UniProt P06804); assay: Cell death attenuation assay, act-D-sensitized L929 cells with rmTNF-α; assay type: cell-based; conditions: act-D-sensitized L929, rmTNF-α 1 ng/ml, 1-100 μM
T2 construct: purchased Miltenyi Biotec
T2 sequence (P06804 80-235 limits assumed): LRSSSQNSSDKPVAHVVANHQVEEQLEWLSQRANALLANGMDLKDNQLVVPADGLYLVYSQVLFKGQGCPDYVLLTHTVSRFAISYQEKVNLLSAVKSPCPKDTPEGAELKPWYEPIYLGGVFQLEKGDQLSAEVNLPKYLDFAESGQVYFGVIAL
Method: HDFs (10^4/well) and L929 cell lines (1.5×10^4/well) were seeded in 96-well plates and grown overnight under appropriate conditions. The next day, HDFs and L929 cells were pretreated with 1 μg/ml act-D and 0.1 μg/ml act-D, respectively, followed by incubated for 30 minutes. Thereafter, a 1-hour-preincubated mixture of 10 ng/ml rhTNFα with test compounds or 1 ng/ml rmTNFα with test compounds, was applied to HDFs and L929 cells, respectively. The cells were incubated for 24 hours post-treatment, and survival was measured by the MTT assay. Cell viability was calculated with reference to the no-treatment control group. The obtained values were normalized with respect to the act-D treatment group and then used to calculate death attenuation (%) rate using the following equation: […]

[4] = target: T1, recombinant human TNF-α (rhTNF-α); assay: TNF-α-mediated hIL-6 secretion in HDFs (ELISA); assay type: cell-based
Method: as §1

[5] = test system: collagen-induced polyarthritis (CIA); assay: Mouse model of collagen-induced polyarthritis (CIA), oral TIM1c; assay type: in vivo
Text: FIG. 6B is a graph showing body weight, FIG. 6C is a graph showing a squeaking number (the value 0 indicating no sign of pain), FIG. 6D is a graph showing an increase in paw volume, FIG. 6E is a graph showing an arthritis index, that is, the severity of mouse limb arthritis. The number of arthritic limbs was quantified, and each limb was assigned a severity score of 0-4, the data representing the number of arthritic limbs per arthritic mouse and the mean severity score of arthritis in each limb, black arrows representing the start date of drug administration, NOR, n=4; CIA, n=4; TIM1c_2 mg/ml, n=4; TIM1c_20 mg/ml, n=5, values being represented as means±SEM. #p<0.05, ##p<0.01, ###p<0.001 vs. NOR group and p<0.05, **p<0.01, ***p<0.001 vs. CIA group (two-way ANOVA followed by Bonferroni correction).
Male DBA/1J mice (20-23 g) were purchased from Central Lab. Animal Inc. (Seoul, Korea). Animals were housed in a limited-access rodent facility with a maximum of 4 animals per polycarbonate cage, with free access to pelleted food and water. The temperature was maintained at 22-24° C. with a 12/12-hour light/dark cycle. Animals were acclimatized for at least 1 week prior to starting the experiment. The number of animals used per experiment or test and the potential suffering were minimized. All methods were approved by the Animal Care and Use Committee of Kyung-Hee University, Korea. All procedures were executed in accordance to the Guide for the Care and Use of Laboratory Animals by the Korea National Institute of Health.
Male DBA/1J mice (6-week-old) were subcutaneously injected with 50 μl of an emulsion containing 100 μg of chicken collagen type II (Sigma-Aldrich Co., St. Louis, MO, USA) dissolved in 25 μl of acetic acid and 25 μl of a complete Freund's adjuvant (Sigma-Aldrich Co.) at the base of the tail thereof, and the day of the first immunization was defined as day 0. On Day 14, the mice were injected with a booster of 50 μl of the emulsion having the same composition as the first immunization, except that an incomplete Freund's adjuvant was used. All mice were randomly divided into 4 experimental groups: non-treated normal group (NOR, n=4), collagen-injected and vehicle-treated arthritis control group (CIA, n=4), 2 mg/kg TIM1c-treated arthritis group (TIM1c 2 mg/ml, n=4), and 20 mg/kg TIM1c-treated arthritis group (TIM1c 20 mg/ml, n=5). The treatment groups were orally fed 2 or 20 mg/kg of TIM1c every 2 days from day 15 to day 60 after the first immunization.
In order to evaluate the progression of arthritis in CIA mice, four parameters (body weight, paw volume increase, squeaking score, and arthritis score) were measured after the first immunization with collagen and complete Freund's adjuvant. The body weights of the mice were measured using a digital balance (Mettler-Toledo Inc., Columbus, OH, USA). In order to assess nociception and hyperalgesia, ankle pain was evaluated on a scale measuring squeaking. Squeaking included any vocalization evoked by ankle flexion and extension. The flexion and extension procedures were repeated 10 times every 5 seconds, and the mouse was rated 0 (no vocalization) or 1 (vocalization) for each hindlimb thereof. The total number of vocalizations detected by the observer was counted as the number of squeaks. Paw swelling was measured by volume displacement of an electrolyte solution using a water-displacement plethysmometer (Ugo-Basil Biological Research Apparatus Co., Comerio-Varese, Italy), as previously described (Bang J. S. et al. (2009) Arthritis Res. Ther. 11(2):R49). The hindlimbs were immersed to the line of the hairy skin, and the volumes thereof were read on a digital display. The increase in paw volume was represented compared to day 0, which was defined as zero. […]

TNF-α/TNFR1 interface = TNF-α/TNFR1 interface (Homo sapiens, UniProt P01375); conditions: target TNF-α/TNFR1 interface, literature; cited from earlier work
[6] = HDFs, 1, 10, 50 and 100 μM, 24 hours

T1 sequence (P01375 77-233 limits assumed): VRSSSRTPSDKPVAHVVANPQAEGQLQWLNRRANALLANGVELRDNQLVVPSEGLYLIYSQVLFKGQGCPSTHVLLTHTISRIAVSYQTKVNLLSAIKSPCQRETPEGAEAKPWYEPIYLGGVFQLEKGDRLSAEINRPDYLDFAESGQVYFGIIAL
Sequence of TNF-α/TNFR1 interface (P01375 77-233 limits assumed, species assumed): as the sequence (P01375 77-233 limits assumed) above

Cc1csc(N(C(=O)c2nn(C)c(=O)c3ccccc23)c2ccccc2)n1 [TIM1-10, 3-methyl-N-(4-methy1-1,3-thiazol-2-yl)-4-oxo-N-phenylphthalazine-1-carboxamide]
inhibition of TNF-induced hIL-8, TIM1 derivatives compared with TIM1 ([1]; 24 hours): concentration-dependent inhibition of TNF-induced hIL-8 greater than that of TIM1 | cytotoxicity (cell viability, MTT assay) [2]: negligible cytotoxicity

Cc1cc2occ(CN(C)CCN(C)Cc3cn(-c4cccc(C(F)(F)F)c4)c4ccccc34)c(=O)c2cc1C [SPD304, reference compound]
secretion of hIL-8 at 10 μM ([1]; HDFs, 10 μM): increase the secretion of cytokines | secretion of hIL-8 at 50 μM ([1]; HDFs, 50 μM): completely inhibits | inhibition of TNF-α-mediated hIL-8 secretion [1, 6]: weak at 10 μM but stronger at 1 μM | cytotoxicity (cell viability, MTT assay) [2]: showed cytotoxicity; also recorded: severe cytotoxicity at high concentrations; also recorded: strong cytotoxicity at concentrations exceeding 1 μM; also recorded: significant cytotoxic effects were exhibited at concentrations of 10, 50 or 100 μM | inhibition of rmTNF-α-mediated proapoptotic pathway / cell death [3]: did not reduce the death of these cells at concentrations other than 1 μM | secretion of hIL-6 at 10 μM ([4]; HDFs, 10 μM): increase the secretion of cytokines | secretion of hIL-6 at 50 μM ([4]; HDFs, 50 μM): completely inhibited | inhibition of TNF-α-mediated hIL-6 secretion [4, 6]: weak at 10 μM but stronger at 1 μM

CCCNc1nc(-c2cc(C)n(NC(=O)c3nn(C)c(=O)c4ccccc34)c2C)cs1.Cl [TIM1c, N-{2,5-dimethyl-3-[2-(propylamino)-1,3-thiazol-4-yl]pyrrol-l-yl}-3-methyl-4-oxophthalazine-1-carboxamide hydrochloride]
inhibition of TNF-induced hIL-8, TIM1 derivatives compared with TIM1 ([1]; 24 hours, hydrochloride): concentration-dependent inhibition of TNF-induced hIL-8 greater than that of TIM1; also recorded: maximally inhibited | cytotoxicity (cell viability, MTT assay) [2]: negligible cytotoxicity | disease severity at low dose ([5]; 2 mg/kg/2 days): slightly ameliorate disease severity | induction of RA at high dose ([5]; 20 mg/kg/2 days): significantly decreased to such an extent that the limbs of the animals were almost identical to those of the normal group | body weight ([5]; 2 or 20 mg/kg every 2 days): weight gain | paw volume ([5]; 2 or 20 mg/kg every 2 days): paw volume decrease | RA symptoms versus CIA mice ([5]; 2 or 20 mg/kg every 2 days, day 15 to day 60): Dose-dependent amelioration | number of squeaks ([5]; CIA mice): inhibited | arthritis index (clinical score) ([5]; treatment group versus CIA): significantly decreased

Cc1cc(-c2csc(NC(=O)c3nn(C)c(=O)c4ccccc34)n2)c(C)n1CCc1ccccc1 [TIM1-14, N-{4-[2,5-dimethyl-1-(2-phenylethyl)pyrrol-3-yl]-1,3-thiazol-2-yl}-3-methyl-4-oxophthalazine-1-carboxamide]
inhibition of TNF-induced hIL-8, TIM1 derivatives compared with TIM1 ([1]; 24 hours): concentration-dependent inhibition of TNF-induced hIL-8 greater than that of TIM1 | cytotoxicity (cell viability, MTT assay) [2]: negligible cytotoxicity

CCCn1c(C)cc(-c2csc(NC(=O)c3nn(CC)c(=O)c4ccccc34)n2)c1C [TIM1-7, N-[4-(2,5-dimethyl-1-propylpyrrol-3-yl)-1,3-thiazol-2-yl]-3-ethyl-4-oxophthalazine-1-carboxamide]
inhibition of TNF-induced hIL-8, TIM1 derivatives compared with TIM1 ([1]; 24 hours): concentration-dependent inhibition of TNF-induced hIL-8 greater than that of TIM1 | cytotoxicity (cell viability, MTT assay) [2]: negligible cytotoxicity

Cc1cc(-c2csc(N(C)C)n2)c(C)n1NC(=O)c1nn(C)c(=O)c2ccccc12 [TIM1d, N-{3-[2-(dimethylamino)-1,3-thiazol-4-yl]-2,5-dimethylpyrrol-1-yl}-3-methyl-4-oxophthalazine-1-carboxamide]
inhibition of TNF-induced hIL-8, TIM1 derivatives compared with TIM1 ([1]; 24 hours): concentration-dependent inhibition of TNF-induced hIL-8 greater than that of TIM1 | cytotoxicity (cell viability, MTT assay) [2]: negligible cytotoxicity

Erythrosine B
pIC50 (TNF-α/TNFR1 interface): 5.30

CCCCCCn1nc(C(=O)Nc2nc3ccccc3s2)c2ccccc2c1=O [TIM1-11, N-(1,3-benzothiazol-2-yl)-3-hexyl-4-oxophthalazine-1-carboxamide]
inhibition of TNF-induced hIL-8, TIM1 derivatives compared with TIM1 ([1]; 24 hours): concentration-dependent inhibition of TNF-induced hIL-8 greater than that of TIM1 | cytotoxicity (cell viability, MTT assay) [2]: negligible cytotoxicity

C=C1C(=O)O[C@@H]2C[C@@H](C)[C@]34C[C@]5(C(=O)O[C@H]6C[C@@]7(C)C(=C[C@H]65)[C@H](C)CC[C@@H]7O)[C@H](C(C)=C3C[C@@H]12)[C@@H]4OC(C)=O [Japonicone A]
pIC50 (TNF-α/TNFR1 interface): ~5.00
